Legend:
c-MET = c-MET (Homo sapiens (Human), UniProt P08581); assay: c-MET kinase inhibitory activity (ELISA, poly(Glu,Tyr) substrate); format: biochemical; settings: ATP 4 μM, 37° C. 1 h; read-out: c-MET kinase inhibitory enzymatic activity IC50
MKN-45 cells = assay: Anti-proliferation activity, CTG, MKN-45 cells; format: cell-based; settings: Homo sapiens; MKN-45 cells, 48 h, CTG
Method: (§1) Experimental objective: To evaluate the anti-proliferation activities of the compounds against MKN-45 cells, EBC-1 cells, Hs746T cells and Vero cells.
(§2) Experimental methods: Tumor cell lines were cultured and periodically passaged, and cells in logarithmic growth phase were taken for plate spreading. The cells were stained with Trypan blue, counted and adjusted to an appropriate density. 50 μL of cell suspension was added into each well of a culture plate, and 50 μL of nutrient solution without cells was added into a blank control well. The culture plate was precultured for 24 h in an incubator under the condition of 37° C., 5% CO2 and 100% relative humidity.
(§3) The DMSO stock solutions of the compounds 1-28 and Capmatinib were prepared, and diluted with Tecan D300e. Each compound was diluted to 7 concentration levels: 0.50 μM, 0.125 μM, 0.031 μM, 0.0078 μM, 0.0020 μM, 0.00049 μM, 0.00012 μM. The experiment was carried out in triplicate.
(§4) 50 μL of the solution was added into each designated well, and the culture plate was incubated for 48 h. 50 μL of CTG working solution was added to each well. The culture plate was wrapped with aluminum foil to avoid light and shaken in the shaker for 2 min to induce cell lysis. The culture plate was placed at room temperature for 10 min to stabilize light-emitting signal which was detected with a 2014 EnVision plate reader. Experimental data was processed by GraphPad Prism 7 to calculate IC50.

EBC-1 cells = assay: Anti-proliferation activity, CTG, EBC-1 cells; format: cell-based, human; settings: Homo sapiens; EBC-1 cells, 48 h, CTG
Method: as §1, §2, §3, §4

Hs746T cells = assay: Anti-proliferation activity, CTG, Hs746T cells; format: cell-based; settings: Homo sapiens; Hs746T cells, 48 h, CTG
Method: as §1, §2, §3, §4

Vero cells = assay: Anti-proliferation activity, CTG, Vero cells; format: cell-based; settings: Chlorocebus sabaeus; Vero cells, 48 h, CTG
Method: as §1, §2, §3, §4

[1] = test system: human EBC-1 cell subcutaneous xenograft model; assay: In vivo anti-tumor assessment in EBC-1 cell xenograft tumor mouse model; design: species or system mice; settings: 10 mg/kg P.O. QD × 15 days; for inhibition of growth of the tumor in mice (tumor volume change): FIG. 2
Method: Experimental objective: To investigate in vivo efficacy of representative compounds on human lung squamous carcinoma cell (human EBC-1 cell) subcutaneous xenograft model.
Experimental methods: The EBC-1 cell xenograft tumor mouse model was used, according to the diameters of tumor, the tumor volume (TV), relative tumor volume (RTV), relative tumor proliferation rate (T/C (%)) and tumor growth inhibition value (TGI (%)) were calculated.
TGI (%) or T/C (%) of the compounds was evaluated. TGI (%) reflects a tumor growth inhibitory rate. TGI (%) was calculated as follows: TGI (%)=[1−(average tumor volume at the end of administration in a treatment group-average tumor volume at the beginning of administration in the treatment group)/(average tumor volume at the end in a solvent control group-average tumor volume at the beginning in the solvent control group)]×100%.
T/C (%) was calculated as follows: T/C (%)=TRTV/CRTV×100%; where TRTV is treatment RTV, and CRTV is negative control RTV. According to the measurement results of the tumor, RTV was calculated, and the calculating formula for RTV is as follows: RTV=Vt/V0; where V0 is the average tumor volume measured on the day of first administration; and Vt is the average tumor volume measured on a specified day. TRTV and CRTV were measured on the same day.

in vivo = settings: both, Kunming, mouse, po

c-MET, sequence (P08581 25-1390): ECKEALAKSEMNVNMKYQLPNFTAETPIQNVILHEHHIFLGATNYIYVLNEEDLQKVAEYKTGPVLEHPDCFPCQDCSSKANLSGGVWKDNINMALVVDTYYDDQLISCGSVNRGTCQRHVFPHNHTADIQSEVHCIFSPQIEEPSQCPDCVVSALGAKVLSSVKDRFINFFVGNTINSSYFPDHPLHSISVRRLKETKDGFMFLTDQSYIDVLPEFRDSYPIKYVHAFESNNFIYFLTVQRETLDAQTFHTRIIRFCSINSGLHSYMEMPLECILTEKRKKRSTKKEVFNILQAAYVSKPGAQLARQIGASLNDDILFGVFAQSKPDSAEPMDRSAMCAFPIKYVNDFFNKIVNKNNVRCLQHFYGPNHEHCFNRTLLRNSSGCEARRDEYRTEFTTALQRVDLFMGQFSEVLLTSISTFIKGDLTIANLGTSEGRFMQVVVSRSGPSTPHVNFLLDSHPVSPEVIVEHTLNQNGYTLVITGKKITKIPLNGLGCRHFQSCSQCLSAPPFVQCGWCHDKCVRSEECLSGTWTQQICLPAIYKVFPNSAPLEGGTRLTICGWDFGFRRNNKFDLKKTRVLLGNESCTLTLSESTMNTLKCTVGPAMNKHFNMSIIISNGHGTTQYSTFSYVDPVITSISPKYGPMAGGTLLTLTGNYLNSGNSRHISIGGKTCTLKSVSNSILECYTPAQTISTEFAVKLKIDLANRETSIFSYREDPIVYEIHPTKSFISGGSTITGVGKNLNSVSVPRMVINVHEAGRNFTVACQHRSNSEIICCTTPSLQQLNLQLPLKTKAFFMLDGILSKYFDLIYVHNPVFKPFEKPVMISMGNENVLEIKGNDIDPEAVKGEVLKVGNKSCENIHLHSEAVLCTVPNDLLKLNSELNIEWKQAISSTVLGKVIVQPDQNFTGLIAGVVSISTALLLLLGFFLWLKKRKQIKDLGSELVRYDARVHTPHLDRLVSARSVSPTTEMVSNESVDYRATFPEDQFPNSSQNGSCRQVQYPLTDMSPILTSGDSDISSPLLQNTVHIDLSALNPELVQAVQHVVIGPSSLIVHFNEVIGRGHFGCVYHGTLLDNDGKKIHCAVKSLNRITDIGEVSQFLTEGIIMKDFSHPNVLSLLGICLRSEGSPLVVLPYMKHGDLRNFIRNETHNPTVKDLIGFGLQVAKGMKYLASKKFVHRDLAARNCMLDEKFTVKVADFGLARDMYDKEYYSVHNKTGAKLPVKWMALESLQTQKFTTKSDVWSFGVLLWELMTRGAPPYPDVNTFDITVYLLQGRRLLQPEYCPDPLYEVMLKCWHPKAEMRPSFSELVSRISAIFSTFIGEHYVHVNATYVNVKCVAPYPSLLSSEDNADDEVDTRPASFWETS

| Compound | IC50 (c-MET) [nM] | IC50 (MKN-45 cells) [nM] | IC50 (EBC-1 cells) [nM] | IC50 (Hs746T cells) [nM] | IC50 (Vero cells) [nM] | T/C(%) [1] [%] | TGI(%) [1] [%] | Tumor Volume (Day 15) [1] [mm^3] | inhibition of growth of the tumor in mice (tumor volume change) ([1]; end of the experiment) | LD50 (in vivo) [mg/kg] | changes in body weight of the mice ([1]; end of the experiment, FIG. 1) |
| --- | --- | --- | --- | --- | --- | --- | --- | --- | --- | --- | --- |
| CNC(=S)c1ccc(-c2cnc3ncc(Cc4ccc5nccnc5c4)n3n2)cc1F [Compound 17] | 0.0016 | 1.2 | 1.6 | 1.2 | 123 | 20.42 | 96.76 | 184 ± 27 | better inhibitory effects | 318 |  |
| CNC(=O)c1ccc(-c2cnc3ncc(Cc4ccc5ncccc5c4)n3n2)cc1F [Capmatinib, reference compound] |  | 5.7 | 3.9 | 4.5 | 68 | 24.97 | 91.23 | 225 ± 25 | could effectively inhibit the growth of the tumor in mice | 164 | greater losses in body weight compared to those in the other groups |

Source: patent publication US20240294535A1, “IMIDAZOTRIAZINE THIOBENZAMIDE DERIVATIVE, AND PREPARATION METHOD AND APPLICATION THEREOF” (Yunbaiyao Zhengwu Science and Technology (Shanghai) Co., …, priority 2023, published 2024)
